# Laboratory results published in PubChem BioAssay (NCI).
# Values joined by “and” are separate entries in the source; they are usually repeats but may differ in a detail not shown here. Identical values can stand only once.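 All cell lines were grown in 96-well plates and treated with compound for 48 hours. GI50 is the concentration that inhibits growth by half. The concentration for full growth arrest is given as TGI.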
# Legend:
# Assay in all cases: NCI anticancer screen, dose series, 48 h
# [1] = test system: ACHN renal
# [2] = test system: M14 melanoma
# [3] = test system: SW-620 colon
# [4] = test system: HCT-15 colon
# [5] = test system: MDA-MB-435
# [6] = test system: SN12C renal
# [7] = test system: CAKI-1 renal
# [8] = test system: K-562 leukemia
# [9] = test system: SK-MEL-5 melanoma
# [10] = test system: HL-60(TB) leukemia
compound,measurement,setting,value
CCC(=O)Nc1ncnc2ncn(C(=O)CC)c12,TGI,[1],> 100 µM
same,TGI,[2],> 100 µM
same,TGI,[3],> 100 µM
same,TGI,[4],> 100 µM
same,TGI,[5],> 100 µM
same,TGI,[6],> 100 µM
same,TGI,[7],> 100 µM
same,TGI,[8],> 100 µM
CC(C)=CCC/C(C)=C/CC/C(C)=C/C1CCC(=O)C1(C)C (configuration not stated),TGI,[1],30.1 µM
same,TGI,[9],29.3 µM
same,TGI,[2],42.5 µM
same,TGI,[4],28.9 µM
same,TGI,[6],30.9 µM
same,TGI,[10],27 µM
same,TGI,[7],46.8 µM
same,TGI,[8],38 µM
OCCCCCNc1ccnc2cc(Cl)ccc12,TGI,[1],> 100 µM
same,TGI,[9],> 100 µM
same,TGI,[2],> 100 µM
same,TGI,[3],> 100 µM
same,TGI,[4],> 100 µM
same,TGI,[6],> 100 µM
same,TGI,[10],> 100 µM
same,TGI,[7],> 100 µM
same,TGI,[8],64.7 µM
COc1ccc2c(c1OC)C(C=C(c1ccccc1)c1ccccc1)CN(C)C2 (configuration not stated),TGI,[1],> 100 µM
same,TGI,[9],29.7 µM
same,TGI,[2],31.3 µM
same,TGI,[3],26.2 µM
same,TGI,[4],33 µM
same,TGI,[6],> 100 µM
same,TGI,[7],45.3 µM
same,TGI,[8],25.1 µM
CSC1SCC2C(=O)N(C)C(C(C)C)C(=O)OCC(NC(=O)c3cnc4ccccc4n3)C(=O)NC(C)C(=O)N(C)C1C(=O)N(C)C(C(C)C)C(=O)OCC(NC(=O)c1cnc3ccccc3n1)C(=O)NC(C)C(=O)N2C (configuration not stated),GI50,[1],< 0.001 µM and 0.00186 µM and 0.0075 µM
same,GI50,[2],< 0.001 µM
same,TGI,[2],0.00121 µM and 0.00346 µM
same,GI50,[3],< 0.001 µM
same,GI50,[4],0.00322 µM
same,GI50,[6],< 0.001 µM
same,GI50,[10],< 0.001 µM
same,GI50,[7],< 0.001 µM
same,GI50,[8],< 0.001 µM
COc1c(Cl)[c]([Hg][O]C(C)=O)c(NCC(C)=O)c(OC)[c]1[Hg][O]C(C)=O,GI50,[1],17.8 µM
same,TGI,[1],34.5 µM
same,GI50,[9],11.1 µM
same,TGI,[9],26.1 µM
same,GI50,[2],14.7 µM
same,TGI,[2],28.6 µM
same,GI50,[3],19.6 µM
same,TGI,[3],62.4 µM
same,GI50,[6],20.8 µM
same,TGI,[6],36.3 µM
same,GI50,[10],19.9 µM
same,TGI,[10],50.1 µM
same,GI50,[7],20.2 µM
same,TGI,[7],35.1 µM
same,GI50,[8],11.8 µM
same,TGI,[8],> 100 µM
CC(C)(C)C1CCC(=O)C(C(O)CC2CC(=O)N(c3ccccc3)C(=O)C2)C1 (configuration not stated),TGI,[1],> 100 µM
same,TGI,[2],> 100 µM
same,TGI,[3],> 100 µM
same,TGI,[4],> 100 µM
same,TGI,[6],> 100 µM
same,TGI,[10],> 100 µM
same,TGI,[7],> 100 µM
same,TGI,[8],> 100 µM
CCCCCCC(O)C(O)CCC(O)C1CCC(CCCCC(O)CC2=CC(C)OC2=O)O1 (configuration not stated),GI50,[1],12.4 µM
same,TGI,[9],7.07 µM and 13.4 µM
same,GI50,[2],17.7 µM
same,TGI,[2],36 µM
same,GI50,[3],36.5 µM
same,TGI,[3],> 100 µM
same,GI50,[4],19.2 µM
same,TGI,[4],80.4 µM
same,TGI,[5],55.2 µM
same,GI50,[6],16.2 µM
same,TGI,[6],34 µM
same,GI50,[7],17.1 µM
same,TGI,[7],41.6 µM
same,TGI,[8],27.6 µM
CC(C)C1NC(=O)[C@H](C)OC(=O)[C@@H](C(C)C)NC(=O)[C@@H](C)OC(=O)C(C(C)C)NC(=O)[C@H](C)OC1=O (some centres not stated),TGI,[1],> 100 µM
same,TGI,[9],> 100 µM
same,TGI,[2],> 100 µM
same,TGI,[3],> 51.7 µM
same,TGI,[4],34.2 µM
same,TGI,[6],> 100 µM
same,TGI,[10],> 100 µM
same,TGI,[7],> 100 µM
same,TGI,[8],> 59.3 µM
Cc1nc2ccccc2c(/C=C/c2ccccc2)c1C(=O)/C=C/c1ccccc1,GI50,[1],1.86 µM
same,TGI,[1],3.62 µM
same,GI50,[9],1.77 µM
same,TGI,[9],3.17 µM
same,GI50,[4],1.56 µM
same,TGI,[4],4.4 µM
same,GI50,[5],2.36 µM
same,TGI,[5],6.71 µM
same,GI50,[6],1.9 µM
same,TGI,[6],4.07 µM
same,GI50,[10],2.45 µM
same,TGI,[10],6.51 µM
same,GI50,[8],2.84 µM
same,TGI,[8],> 100 µM
CC(=O)OC1(C#N)CC2OC1C1N=NN(C(=O)OC(C)(C)C)C21 (configuration not stated),TGI,[1],> 100 µM
same,TGI,[9],> 31.6 µM
same,TGI,[2],51.2 µM
same,TGI,[3],23.1 µM
same,TGI,[4],22.5 µM
same,TGI,[6],> 100 µM
same,TGI,[10],79.4 µM
same,TGI,[7],> 31.6 µM
same,TGI,[8],> 100 µM
[N-]=[N+]=NC1C2CC3CC(C2)CC1C3 (configuration not stated),TGI,[1],> 100 µM
same,TGI,[9],> 100 µM
same,TGI,[2],> 100 µM
same,TGI,[3],> 100 µM
same,TGI,[6],> 100 µM
same,TGI,[7],> 100 µM
same,TGI,[8],> 100 µM
CCC(C)(C)NS(=O)(=O)c1ccccc1,TGI,[1],> 100 µM
same,TGI,[9],> 100 µM
same,TGI,[2],> 100 µM
same,TGI,[3],> 100 µM
same,TGI,[4],> 100 µM
same,TGI,[10],> 100 µM
same,TGI,[7],> 100 µM
same,TGI,[8],> 100 µM
CC1(C)Oc2ccccc2[N+]([O-])=C1c1ccccc1,TGI,[1],> 100 µM
same,TGI,[9],> 100 µM
same,TGI,[2],> 100 µM
same,TGI,[3],> 100 µM
same,TGI,[4],> 100 µM
same,TGI,[6],> 100 µM
same,TGI,[10],> 100 µM
same,TGI,[7],> 100 µM
same,TGI,[8],> 100 µM
Cc1nc(-n2nc(-c3ccccc3)cc2-c2ccccc2)sc1C(=O)/C=C/c1ccc(Cl)cc1,TGI,[1],> 100 µM
same,TGI,[9],31 µM
same,TGI,[3],61.1 µM
same,TGI,[4],> 100 µM
same,TGI,[6],> 100 µM
same,TGI,[10],33.1 µM
same,TGI,[7],62.7 µM
C/C(=N\NS(=O)(=O)c1c(C)cc(C)cc1C)c1ccc[n+]([O-])n1,TGI,[1],29.9 µM
same,TGI,[9],> 100 µM
same,TGI,[2],20.7 µM
same,TGI,[3],22.3 µM
same,TGI,[4],28.5 µM
same,TGI,[6],29.2 µM
same,TGI,[10],25.1 µM
same,TGI,[7],18.1 µM
same,TGI,[8],30.2 µM
Cc1ccc(-n2c3c(c4c(CN)c(O)ccc42)CCc2ccccc2C3=O)cc1,GI50,[1],16.7 µM
same,TGI,[1],31.1 µM
same,GI50,[9],1.61 µM
same,TGI,[9],3.01 µM
same,GI50,[2],5.5 µM
same,TGI,[2],18.9 µM
same,GI50,[3],2.48 µM
same,TGI,[3],8.19 µM
same,GI50,[4],15.9 µM
same,TGI,[4],30.9 µM
same,GI50,[5],3 µM
same,TGI,[5],8.87 µM
same,GI50,[6],14.2 µM
same,TGI,[6],28.2 µM
same,GI50,[7],13 µM
same,TGI,[7],26.6 µM
COc1ccc(C[C@H]2NC[C@H](O)[C@H]2OC(C)=O)cc1,TGI,[1],0.122 µM
same,GI50,[9],0.0176 µM
same,TGI,[9],0.0585 µM
same,TGI,[2],0.068 µM
same,TGI,[3],0.15 µM
same,TGI,[5],0.193 µM
same,TGI,[6],0.253 µM
same,TGI,[7],0.06 µM
same,TGI,[8],0.11 µM
COC(=O)C1=C(O)c2cc3c(cc2[C@H](c2cc(OC)c(OC)c(OC)c2)C1)OCO3,TGI,[1],> 100 µM
same,TGI,[9],61.1 µM
same,TGI,[2],> 100 µM
same,TGI,[3],> 100 µM
same,TGI,[4],> 100 µM
same,TGI,[6],> 100 µM
same,TGI,[10],67.6 µM
same,TGI,[7],> 100 µM
same,TGI,[8],> 100 µM
COC(=O)c1ccc(/C=C/S(=O)(=O)c2ccccc2)cc1,TGI,[1],> 100 µM
same,TGI,[9],> 100 µM
same,TGI,[2],> 100 µM
same,TGI,[3],> 100 µM
same,TGI,[4],> 100 µM
same,TGI,[6],> 100 µM
same,TGI,[10],> 100 µM
same,TGI,[7],> 100 µM
same,TGI,[8],> 100 µM
CCOc1ccc(N=Cc2ccc3ccccc3n2)cc1,TGI,[1],> 100 µM
same,TGI,[9],> 100 µM
same,TGI,[2],> 100 µM
same,TGI,[3],> 100 µM
same,TGI,[4],> 100 µM
same,TGI,[6],> 100 µM
same,TGI,[10],> 76.8 µM
same,TGI,[7],> 100 µM
same,TGI,[8],> 100 µM
Cc1ccc(-c2cc(=O)c3cc(C)c(C)c(C(=O)O)c3o2)cc1[N+](=O)[O-],TGI,[1],> 100 µM
same,TGI,[9],> 100 µM
same,TGI,[2],> 100 µM
same,TGI,[3],> 100 µM
same,TGI,[4],> 100 µM
same,TGI,[6],> 100 µM
same,TGI,[7],> 100 µM
same,TGI,[8],> 100 µM
